{
  "source": "patent US8088780B2",
  "about": "“5,7-disubstituted thiazolo[4,5-D]pyrimidines for the selective inhibition of chemokine receptors” (AstraZeneca AB, priority 2005, dated 2012)",
  "key": {"CXCR2": {"target": "T1, CXCR2 (Homo sapiens, UniProt P25025)", "T1 construct": "kept under geneticin/G418 selection", "T1 sequence (P25025 1-360)": "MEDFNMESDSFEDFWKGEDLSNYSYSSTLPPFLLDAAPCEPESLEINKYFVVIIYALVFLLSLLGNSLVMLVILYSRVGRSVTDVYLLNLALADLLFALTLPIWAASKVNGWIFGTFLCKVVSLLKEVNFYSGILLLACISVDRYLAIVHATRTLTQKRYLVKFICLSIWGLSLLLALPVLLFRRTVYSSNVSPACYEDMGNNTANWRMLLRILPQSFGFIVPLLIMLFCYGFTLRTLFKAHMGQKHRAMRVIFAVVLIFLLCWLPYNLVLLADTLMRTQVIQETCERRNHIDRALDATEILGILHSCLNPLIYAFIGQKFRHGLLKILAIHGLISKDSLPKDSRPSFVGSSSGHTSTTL", "assay": "[125I]-hIL-8 competition binding (SPA) on membranes of cells expressing human CXCR2", "details": "receptor binding, [125I]-hIL-8, human CXCR2 membranes", "protocol": "Cells expressing human CXCR2 obtained from AstraZeneca Charnwood are cultured in EMEM containing Glutamax and supplemented with 10% FBS (from PAA, Austria), 1% non-essential amino acids (NEAA), 100 U/mL penicillin and 100 μg/mL streptomycin (PEST) and 500 μg/mL geneticin/G418.\nCells are grown at 37° C. and 5% CO2 and harvested at 60-80% confluence in buffer containing 10 mM Tris-HCl pH 7.4, 5 mM EDTA, 0.1 mg/mL bacitracin. The cells are centrifuged at 300×g for 10 min and the pellet is resuspended in harvesting buffer (10 mM Tris-HCl, pH 7.4, 5 mM ethylenediaminetetra-acetic acid (EDTA) and 0.1 mg/mL bacitracin), pooled and homogenised using a Dounce homogeniser. The homogenate is centrifuged in 48000×g for 10 min and resuspended in harvesting buffer using Ultra-Turrax T8. Membrane aliquots are stored at −80° C.\nThe non-specific binding is determined in the presence of 500 nM unlabelled hIL-8. The agonist hIL-8 (a concentration-response curve from 3 pM to 30 nM), is used as reference compound at each test occasion. […] The binding reaction is started by addition of 140 μL membrane-SPA preparation, and the samples are incubated in dark at RT for 4 h."}, "CX3CR1": {"target": "T2, CX3CR1 (Homo sapiens, UniProt P49238)", "T2 construct": "expressed in transfected cells", "T2 sequence (P49238 1-355)": "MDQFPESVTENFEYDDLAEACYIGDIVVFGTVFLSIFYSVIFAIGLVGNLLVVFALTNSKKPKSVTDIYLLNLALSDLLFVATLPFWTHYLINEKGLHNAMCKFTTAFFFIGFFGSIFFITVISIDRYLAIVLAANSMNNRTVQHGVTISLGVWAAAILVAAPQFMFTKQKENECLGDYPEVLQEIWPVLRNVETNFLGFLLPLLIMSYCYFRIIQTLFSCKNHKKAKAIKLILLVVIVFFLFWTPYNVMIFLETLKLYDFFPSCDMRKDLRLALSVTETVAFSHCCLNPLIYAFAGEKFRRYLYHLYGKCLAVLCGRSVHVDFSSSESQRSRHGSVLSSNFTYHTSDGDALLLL", "assay": "[125I]-fractalkine competition receptor binding assay on membranes of cells expressing hCX3CR1", "details": "HEKS 293 hCX3CR1 membranes", "protocol": "The complete human CX3CR1 cDNA (GenBank accession number U20350) was extracted from human brain mRNA (Superscript, Life Technologies) and ligated into pCR-Blunt II TOPO vector (InVitrogen). The insert corresponding hCX3CR1 was isolated and further subcloned into pcDNA3.1zeo. Plasmid DNA was prepared using Plasmid Midi Kit (Qiagen). […] A stable clone was generated utilizing zeocin (500 μg/mL) and hygromycin (100 μg/mL) selection. For further applications the cells were maintained in Dulbecco's modified Eagle's medium/Ham's nutrient mix F12 (DMEM/F12) containing pyridoxine and supplemented with 10% (v/v) fetal bovine serum, 2 mM L-glutamine, 100 U/ml penicillin and 100 mg/ml streptomycin, 250 μg/mL zeocin and 100 μg/mL hygromycin.\nCells are grown at 37° C. and 5% CO2 and harvested at 60-80% confluence in buffer containing 10 mM Tris-HCl pH 7.4, 5 mM EDTA, 0.1 mg/mL bacitracin. The cells are centrifuged at 300×g for 10 min and the pellet is resuspended in harvesting buffer (10 mM Tris-HCl, pH 7.4, 5 mM ethylenediaminetetra-acetic acid (EDTA) and 0.1 mg/mL bacitracin), pooled and homogenised using a Dounce homogeniser. […]\nTen concentrations (2 points/log unit) of the test compounds were pre-dissolved in DMSO and added to reach a final concentration of 1% (v/v) DMSO. […] Scintillation cocktail was added and radioactivity was determined in a Packard 2500TR liquid scintillation counter."}},
  "data": [
    {"smiles": "CC(C)C[C@H](CO)Nc1nc(SCc2ccccc2)nc2[nH]c(=O)sc12", "note": "[5-(benzylthio)-7-{[(1R)-1-(hydroxymethyl)-3-methylbutyl]amino}[1,3]thiazolo[4,5-d]pyrimidin-2(3H)-one]", "values": [
      {"measurement": "Ki", "setting": "CXCR2", "value": 79, "unit": "nM"},
      {"measurement": "Ki", "setting": "CX3CR1", "value": 54, "unit": "nM"}
    ]},
    {"smiles": "CCC(Sc1nc(N[C@@H](CO)CC(C)C)c2sc(=O)[nH]c2n1)c1ccccc1", "note": "(stereo partly shown)", "values": [
      {"measurement": "Ki", "setting": "CXCR2", "value": 651, "unit": "nM"},
      {"measurement": "Ki", "setting": "CX3CR1", "value": 5.8, "unit": "nM"}
    ]}
  ]
}
